Laboratory results published in paper PMC6933146 (Biotechnology Reports, 2019).
Each block holds one compound with its values, some of them ahead of it.

Assays:
Type in all cases: biochemical, Alcaligenes faecalis
[1] = tested on: LAC1* (purified extracellular laccase); assay: spectrophotometric oxidation at […] nm, Lineweaver-Burk; details: pH 8.0, 80 °C, 50-500 μM substrate
[2] = tested on: LAC1* (purified extracellular laccase); assay: spectrophotometric oxidation; details: optimized conditions (optimum pH for ABTS 5.5), 50-500 μM substrate
[3] = tested on: LAC1* (purified extracellular laccase); assay: spectrophotometric oxidation; details: optimized conditions (optimum pH for guaiacol 8), 50-500 μM substrate

Km [1]: 480 µM
Structure (SMILES): COc1cccc(OC)c1O [2,6-DMP]

Km [2]: 500 µM
Structure (SMILES): CCn1c(=NN=c2sc3cc(S(=O)(=O)O)ccc3n2CC)sc2cc(S(=O)(=O)O)ccc21 [ABTS]

Km [3]: 1000 µM
Structure (SMILES): COc1ccccc1O [Guaiacol]
